Like-named read-outs stand apart in the source and are kept apart here.
What was measured:
Csk = target: T1, Csk (Homo sapiens, UniProt P41240); assay: Csk tyrosine kinase activity, poly E4Y and 32P-ATP; assay type: biochemical
T1 construct: GST (glutathione-S-transferase) (N); made in house; host or cells: E. coli (pGEX vector)
Description: (§1) Recombinant human Src was expressed using the baculovirus-insect cell system and purified as published (Budde et al., 1993 and 2000). Recombinant Csk and the FGF receptor (FGFr) were expressed as glutathione-S-transferase fusion proteins using the pGEX expression vector and E. coli, and purified as described (Sun & Budde, 1995).
(§2) The tyrosine kinase activity of Src, Csk and FGFr was determined using poly E4Y and ^32P-ATP. Briefly, enzymes were assayed in a reaction mixture consisting of 0.15 M EPPS-NaOH (pH 8.0) with 6 mM MgCl2, 0.2 mM γ^32P-ATP (0.2-0.4 mCi/μmol), 10% glycerol, 0.1% Triton X-100, and poly E4Y. Poly E4Y is a synthetic peptide whose phosphorylation is measured in this assay by the addition of the radioactively labeled phosphate from the ATP (Budde et al., 1995). […] When ATP was varied (0, 50, 100 and 250 μM), poly E4Y was kept constant at 150 μg/ml.

Recombinant human Src = target: T2, Recombinant human Src (Homo sapiens, UniProt P12931); assay: Src tyrosine kinase activity, poly E4Y and 32P-ATP; assay type: biochemical
T2 construct: made in house; host or cells: baculovirus-insect cell system
Description: as §1, §2

[1] = screening assay, 50 μg/ml poly E4Y, 0.2 mM 32P-ATP
[2] = Table 2, read-out: Src IC50 (especially good inhibitors of Src)
[3] = read-out: IC50 (preferred compounds for treatment of Src family-related disease)

T2 sequence (P12931 whole entry): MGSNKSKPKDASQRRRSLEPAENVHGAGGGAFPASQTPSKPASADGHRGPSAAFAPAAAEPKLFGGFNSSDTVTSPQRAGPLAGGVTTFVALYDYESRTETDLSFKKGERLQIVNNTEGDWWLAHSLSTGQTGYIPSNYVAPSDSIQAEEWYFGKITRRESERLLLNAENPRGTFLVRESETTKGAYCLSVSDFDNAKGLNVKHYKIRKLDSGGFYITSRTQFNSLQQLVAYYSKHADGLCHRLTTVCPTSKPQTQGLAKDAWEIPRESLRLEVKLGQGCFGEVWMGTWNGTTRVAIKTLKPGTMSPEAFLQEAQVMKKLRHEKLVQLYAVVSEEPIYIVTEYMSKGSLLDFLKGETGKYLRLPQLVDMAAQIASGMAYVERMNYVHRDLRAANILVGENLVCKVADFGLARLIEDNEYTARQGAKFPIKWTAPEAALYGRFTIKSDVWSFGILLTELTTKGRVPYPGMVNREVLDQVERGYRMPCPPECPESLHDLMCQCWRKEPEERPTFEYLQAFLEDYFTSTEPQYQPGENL

| IC50 (Csk; [1]) | Structure (SMILES) | other results |
| --- | --- | --- |
| > 133 µM | COc1ccccc1-c1sc2c(NN=Cc3cccnc3)ncnc2c1C [Compound 432, 3-Pyridinecarboxaldehyde(6-(2-methoxyphenyl)-7-methylthieno[3,2-d]pyrimidin-4-yl)hydrazone] | IC50 (Recombinant human Src; [2]): ≤ 2 µM; IC50 (Recombinant human Src; [3]): < 2 µM |
| > 127 µM | Cc1c(I)sc2c(NN=Cc3cccnc3)ncnc12 [Compound 372, 3-Pyridinecarboxaldehyde(6-iodo-7-methylthieno[3,2-d]pyrimidin-4-yl)hydrazone] | IC50 (Recombinant human Src; [2]): ≤ 2 µM; IC50 (Recombinant human Src; [3]): < 2 µM |
| > 131 µM | Cc1c(-c2ccc(CO)cc2)sc2c(NN=Cc3cccs3)ncnc12 [Compound 438, 2-Thiophenecarboxaldehyde(6-(4-hydroxymethylphenyl)-7-methylthieno[3,2-d]pyrimidin-4-yl)hydrazone] | IC50 (Recombinant human Src; [2]): ≤ 2 µM; IC50 (Recombinant human Src; [3]): < 2 µM |
| > 117 µM | COc1ccc(C=NNc2ncnc3cc(I)sc23)cc1O [Compound 397, 3-Hydroxy-4-Methoxybenzaldehyde(6-iodothieno[3,2-d]pyrimidin-4-yl)hydrazone] | IC50 (Recombinant human Src; [2]): ≤ 2 µM; IC50 (Recombinant human Src; [3]): < 2 µM |
| > 137 µM | Clc1cccc(-c2cc3ncnc(NN=Cc4cccnc4)c3s2)c1 [Compound 304, 3-Pyridinecarboxaldehyde(6-(3-chlorophenyl)thieno[3,2-d]pyrimidin-4-yl)hydrazone] | – |
| > 176 µM | Cc1csc2c(NN=Cc3ccccc3O)ncnc12 [Compound 44] | IC50 (Recombinant human Src; screening assay, 50 μg/ml poly E4Y, 0.2 mM 32P-ATP, read-out: Src IC50): > 176 µM |
| > 140 µM | Cc1c(-c2ccsc2)sc2c(NN=Cc3cccs3)ncnc12 [Compound 381, 2-Thiopnhenecarboxaldehyde(7-methyl-6-(3-thienyl)thieno[3,2-d]pyrimidin-4-yl)hydrazone] | IC50 (Recombinant human Src; [2]): ≤ 2 µM; IC50 (Recombinant human Src; [3]): < 2 µM |
| > 170 µM | Cc1csc2c(NN=Cc3cccc(C#N)c3)ncnc12 [Compound 122, 3-Cyanobenzaldehyde(7-methylthieno[3,2-d]pyrimidin-4-yl)hydrazone] | IC50 (Recombinant human Src; [2]): ≤ 2 µM; IC50 (Recombinant human Src; [3]): < 2 µM |
| > 165 µM | Cc1csc2c(NN=Cc3ccccc3Cl)ncnc12 [Compound 45, 2-Chlorobenzaldehyde(7-methylthieno[3,2-d]pyrimidin-4-yl)hydrazone] | – |
| > 182 µM | Cc1csc2c(NN=Cc3nccs3)ncnc12 [Compound 40, 2-Thiazolecarboxaldehyde(7-methylthieno[3,2-d]pyrimidin-4-yl)hydrazone] | – |
| > 136 µM | COc1ccc(-c2cc3ncnc(NN=Cc4cccs4)c3s2)cc1 [Compound 407, 2-Thiophenecarboxaldehyde(6-(4-methoxyphenyl)thieno[3,2-d]pyrimidin-4-yl)hydrazone] | – |
| > 143 µM | Cc1c(-c2ccccc2)sc2c(NN=Cc3cccs3)ncnc12 [Compound 361, 2-Thiophenecarboxaldehyde(7-methyl-6-phenylthieno[3,2-d]pyrimidin-4-yl)hydrazone] | IC50 (Recombinant human Src; [2]): ≤ 2 µM; IC50 (Recombinant human Src; [3]): < 2 µM |
| > 173 µM | Cc1ccsc1C=NNc1ncnc2c(C)csc12 [Compound 119, 3-Methyl-2-thiophenecarboxaldehyde(7-methylthieno[3,2-d]pyrimidin-4-yl)hydrazone] | – |
| > 194 µM | Cc1csc2c(NN=Cc3ccoc3)ncnc12 [Compound 38, 3-Furancarboxaldehyde(7-methylthieno[3,2-d]pyrimidin-4-yl)hydrazone] | – |
| > 125 µM | Cc1c(I)sc2c(NN=Cc3cccs3)ncnc12 [Compound 374, 2-Thiophenecarboxaldehyde(6-iodo-7-methylthieno[3,2-d]pyrimidin-4-yl)hydrazone] | – |
| > 159 µM | CSc1ccc(C=NNc2ncnc3c(C)csc23)cc1 [Compound 172, 4-(Methylthio)benzaldehyde(7-methylthieno[3,2-d]pyrimidin-4-yl)hydrazone] | – |
| > 160 µM | Cc1csc2c(NN=Cc3cccc(C(=O)O)c3)ncnc12 [Compound 249, 3-Carboxybenzaldehyde(7-methylthieno[3,2-d]pyrimidin-4-yl)hydrazone] | – |
| > 194 µM | Cc1csc2c(NN=Cc3ncc[nH]3)ncnc12 [Compound 34, 1H-Imidazole-2-carboxaldehyde(7-methylthieno[3,2-d]pyrimidin-4-yl)hydrazone] | – |
| > 153 µM | CCCOc1ccc(C=NNc2ncnc3c(C)csc23)cc1 [Compound 134, 4-Propoxybenzaldehyde(7-methylthieno[3,2-d]pyrimidin-4-yl)hydrazone] | – |
| > 131 µM | COc1ccc(-c2sc3c(NN=Cc4cccs4)ncnc3c2C)cc1 [Compound 424, 2-Thiophenecarboxaldehyde(6-(4-methoxyphenyl)-7-methylthieno[3,2-d]pyrimidin-4-yl)hydrazone] | – |
| – | COc1cc(C(O)c2sc3c(NN=Cc4ccc(C(=O)O)cc4)ncnc3c2C)cc(OC)c1OC (stereo not shown) [Compound 480, 4-Carboxybenzaldehyde(6-(1-hydroxy-1-[3,4,5-trimethoxyphenyl])methyl-7-methylthieno[3,2-d]pyrimidin-4-yl)hydrazone] | IC50 (Csk; poly E4Y and 32P-ATP): > 98.3 µM |
| – | COc1ccc(C=NNc2ncnc3c(C)c(C(O)c4cc(OC)c(OC)c(OC)c4)sc23)cc1O (stereo not shown) [Compound 482, 3-Hydroxy-4-methoxybenzaldehyde(6-(1-hydroxy-1-[3,4,5-trimethoxyphenyl])methyl-7-methylthieno[3,2-d]pyrimidin-4-yl)hydrazone] | IC50 (Csk; poly E4Y and 32P-ATP): > 97.9 µM |

| IC50 (Csk; [1]) | Structure (SMILES) | other results |
| --- | --- | --- |
| > 151 µM | N#Cc1ccc(C=NNc2ncnc3c2sc2ncccc23)cc1 [Compound 248] | – |
| > 153 µM | CCCOc1cccc(C=NNc2ncnc3c(C)csc23)c1 [Compound 135, 3-Propoxybenzaldehyde(7-methylthieno[3,2-d]pyrimidin-4-yl)hydrazone] | – |
| > 242 µM | CC=NNc1ncnc2c(C)csc12 [Compound 153, Ethanal(7-methylthieno[3,2-d]pyrimidin-4-yl)hydrazone] | – |
| > 166 µM | Cc1sc2c(NN=Cc3ccc(F)cc3)ncnc2c1C [Compound 93, 4-Fluorobenzaldehyde(6,7-dimethylthieno[3,2-d]pyrimidin-4-yl)hydrazone] | – |
| > 186 µM | Cc1csc2c(NN=Cc3ccccn3)ncnc12 [Compound 26, 2-Pyridinecarboxaldehyde(7-methylthieno[3,2-d]pyrimidin-4-yl)hydrazone] | – |
| > 215 µM | CC=CC=NNc1ncnc2c(C)csc12 [Compound 182, E-2-Butenal(7-methylthieno[3,2-d]pyrimidin-4-yl)hydrazone] | – |
| > 147 µM | CCCCOc1cccc(C=NNc2ncnc3c(C)csc23)c1 [Compound 139] | – |
| > 184 µM | Cc1csc2c(NN=Cc3nccn3C)ncnc12 [Compound 101, 1-Methyl-1H-imidazole-2-carboxaldehyde(7-methylthieno[3,2-d]pyrimidin-4-yl)hydrazone] | – |
| > 201 µM | CCCCC=NNc1ncnc2c(C)csc12 [Compound 175, Pentanal(7-methylthieno[3,2-d]pyrimidin-4-yl)hydrazone] | – |
| > 160 µM | Cc1csc2c(NN=Cc3cccc([N+](=O)[O-])c3)ncnc12 [Compound 144] | – |
| > 135 µM | Clc1cccc(-c2cc3ncnc(NN=Cc4cccs4)c3s2)c1 [Compound 306] | – |
| – | COc1cc(C(O)c2sc3c(NN=Cc4cccs4)ncnc3c2C)cc(OC)c1OC (stereo not shown) [Compound 481, 2-Thiophenecarboxaldehyde(6-(1-hydroxy-1-[3,4,5-trimethoxyphenyl])methyl-7-methylthieno[3,2-d]pyrimidin-4-yl)hydrazone] | IC50 (Csk; poly E4Y and 32P-ATP): > 106 µM |
| > 129 µM | Ic1cc2ncnc(NN=Cc3cccs3)c2s1 [Compound 396, 2-Thiophenecarboxaldehyde(6-iodothieno[3,2-d]pyrimidin-4-yl)hydrazone] | – |
| > 213 µM | CCCC=NNc1ncnc2c(C)csc12 [Compound 174, Butanal(7-methylthieno[3,2-d]pyrimidin-4-yl)hydrazone] | – |
| > 182 µM | Cc1csc2c(NN=CC3CCCCC3)ncnc12 [Compound 25, Cyclohexanecarboxaldehyde(7-methylthieno[3,2-d]pyrimidin-4-yl)hydrazone] | – |
| > 160 µM | Cc1csc2c(NN=Cc3ccc(C(=O)O)cc3)ncnc12 [Compound 28, 4-Carboxybenzaldehyde(7-methylthieno[3,2-d]pyrimidin-4-yl)hydrazone] | – |
| > 176 µM | Cc1csc2c(NN=Cc3ccc(O)cc3)ncnc12 [Compound 10, 4-Hydroxybenzaldehyde(7-methylthieno[3,2-d]pyrimidin-4-yl)hydrazone] | – |
| > 137 µM | Clc1ccc(-c2cc3ncnc(NN=Cc4cccnc4)c3s2)cc1 [Compound 308, 3-Pyridinecarboxaldehyde(6-(4-chlorophenyl)thieno[3,2-d]pyrimidin-4-yl)hydrazone] | – |
| > 184 µM | Cc1csc2c(NN=CC3CC=CCC3)ncnc12 (stereo not shown) [Compound 181, 3-Cyclohexene-1-carboxaldehyde(7-methylthieno[3,2-a]pyrimidin-4-yl)hydrazone] | – |
| – | COc1cc(C(O)c2sc3c(NN=Cc4cccnc4)ncnc3c2C)cc(OC)c1OC (stereo not shown) [Compound 479, 3-Pyridinecarboxaldehyde(6-(1-hydroxy-1-[3,4,5-trimethoxyphenyl])methyl-7-methylthieno[3,2-d]pyrimidin-4-yl)hydrazone] | IC50 (Csk; poly E4Y and 32P-ATP): > 107 µM |
| > 227 µM | CCC=NNc1ncnc2c(C)csc12 [Compound 173, Propanal(7-methylthieno[3,2-d]pyrimidin-4-yl)hydrazone] | – |

— patent US7285556B2, “Thienopyrimidine-based inhibitors of the src family” (Board of Regents, The University of Texas Systems, priority 2000, dated 2007)
